From paper PMC8086025, “A benzopyran with antiarrhythmic activity is an inhibitor of Kir3.1-containing potassium channels” (The Journal of Biological Chemistry, 2021)
Entries after “also recorded” stand apart in the source; their conditions may differ. Ends that are not written are not given here.

Tests used:
[1] = biological target: T1, 5-HT2B (Homo sapiens, UniProt P41595); assay: Radioligand binding, [125I](±)DOI; conditions: reference compound run for the assay
T1 construct: expressed in transfected cells; host or cells: CHO cells
T1 sequence (P41595 whole entry): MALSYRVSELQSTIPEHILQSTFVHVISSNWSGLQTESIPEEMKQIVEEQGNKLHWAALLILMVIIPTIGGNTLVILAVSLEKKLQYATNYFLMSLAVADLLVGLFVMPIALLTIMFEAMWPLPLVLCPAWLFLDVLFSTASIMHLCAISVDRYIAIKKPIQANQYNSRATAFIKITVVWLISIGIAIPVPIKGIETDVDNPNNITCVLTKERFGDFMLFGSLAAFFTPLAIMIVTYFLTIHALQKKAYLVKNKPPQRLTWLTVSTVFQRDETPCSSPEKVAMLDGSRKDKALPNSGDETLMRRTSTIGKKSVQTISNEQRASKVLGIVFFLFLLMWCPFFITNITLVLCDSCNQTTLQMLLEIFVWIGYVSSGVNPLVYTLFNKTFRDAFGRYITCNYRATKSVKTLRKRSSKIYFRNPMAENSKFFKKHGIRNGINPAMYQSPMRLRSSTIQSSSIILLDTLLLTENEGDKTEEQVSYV

[2] = biological target: T2, Muscarinic M5 (Homo sapiens, UniProt P08912); assay: Radioligand binding, [3H]4-DAMP; conditions: reference compound run for the assay
T2 construct: expressed in transfected cells; host or cells: CHO cells
T2 sequence (P08912 whole entry): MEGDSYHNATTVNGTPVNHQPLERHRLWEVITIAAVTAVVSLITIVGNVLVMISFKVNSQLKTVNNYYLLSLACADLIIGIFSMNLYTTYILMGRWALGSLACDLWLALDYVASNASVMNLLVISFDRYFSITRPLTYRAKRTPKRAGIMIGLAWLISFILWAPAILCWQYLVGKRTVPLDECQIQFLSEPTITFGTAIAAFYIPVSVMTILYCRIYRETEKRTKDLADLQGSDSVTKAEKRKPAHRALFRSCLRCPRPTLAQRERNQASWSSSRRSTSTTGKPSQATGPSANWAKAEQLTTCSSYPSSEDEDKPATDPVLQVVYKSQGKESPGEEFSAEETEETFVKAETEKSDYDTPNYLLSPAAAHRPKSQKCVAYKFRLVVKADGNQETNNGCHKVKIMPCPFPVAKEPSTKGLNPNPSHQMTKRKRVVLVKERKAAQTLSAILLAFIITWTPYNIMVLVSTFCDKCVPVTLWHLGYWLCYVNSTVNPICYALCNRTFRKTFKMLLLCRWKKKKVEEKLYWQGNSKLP

[3] = test system: IKACh; assay: In vivo ECG, carbachol-induced heart rate slowing in anesthetized mice; conditions: 300 μl of 200 μM i.p.
Method: We tested the in vivo effects of BP-G1 versus those of BP-G1(SR) on heart rate in anesthetized adult mice (Fig. 8). ECG was continuously recorded. Panel A is the ECG showing that after carbachol (300 μl of 200 μM) was administered, i.p. (red mark), the heart decelerated, with a visible RR prolongation. About 10 min after carbachol injection, BP-G1 was delivered via the jugular vein (40 μl of 240 μM) (green mark). Within 5 min, there was a reversal of carbachol’s effects on the heart rate. Panel B is a control mouse showing heart rate slowing after carbachol administration (red mark).
Mice were anesthetized (1.5% isofluorane), and a 1.2 French octapolar catheter (Millar) with a drug delivery port was placed transvenously, through the jugular vein, into the right atrium. Continuous ECG was recorded using the Animal Bio Amp and PowerLab 4/35 Advanced Instruments apparatus. […] Saline control at the same volume was performed. Results are averages ±SD.

[4] = biological target: T3, Kir3.1/4 channel (Homo sapiens, UniProt P48544+P48549); assay: TEVC in Xenopus oocytes, Kir3.1/4; format: cell-based; set-up: expressed in transfected cells; host or cells: Xenopus laevis oocytes (cRNA injection); conditions: 1 μM, TEVC
T3 sequence (P48549 1-501): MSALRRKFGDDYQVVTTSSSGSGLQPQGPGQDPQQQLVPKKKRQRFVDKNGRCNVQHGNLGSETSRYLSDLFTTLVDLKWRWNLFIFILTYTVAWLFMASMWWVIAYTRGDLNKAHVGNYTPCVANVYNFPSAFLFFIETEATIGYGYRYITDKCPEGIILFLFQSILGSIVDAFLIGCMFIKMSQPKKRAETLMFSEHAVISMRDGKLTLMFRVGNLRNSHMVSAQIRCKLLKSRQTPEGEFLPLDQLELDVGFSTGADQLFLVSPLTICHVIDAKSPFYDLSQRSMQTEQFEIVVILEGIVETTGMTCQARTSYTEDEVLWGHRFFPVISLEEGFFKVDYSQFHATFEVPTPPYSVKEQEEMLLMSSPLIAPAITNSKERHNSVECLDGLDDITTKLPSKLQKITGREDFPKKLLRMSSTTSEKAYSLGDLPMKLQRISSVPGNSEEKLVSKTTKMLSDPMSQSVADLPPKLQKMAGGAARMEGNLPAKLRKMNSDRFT
T3 sequence (P48544 1-419): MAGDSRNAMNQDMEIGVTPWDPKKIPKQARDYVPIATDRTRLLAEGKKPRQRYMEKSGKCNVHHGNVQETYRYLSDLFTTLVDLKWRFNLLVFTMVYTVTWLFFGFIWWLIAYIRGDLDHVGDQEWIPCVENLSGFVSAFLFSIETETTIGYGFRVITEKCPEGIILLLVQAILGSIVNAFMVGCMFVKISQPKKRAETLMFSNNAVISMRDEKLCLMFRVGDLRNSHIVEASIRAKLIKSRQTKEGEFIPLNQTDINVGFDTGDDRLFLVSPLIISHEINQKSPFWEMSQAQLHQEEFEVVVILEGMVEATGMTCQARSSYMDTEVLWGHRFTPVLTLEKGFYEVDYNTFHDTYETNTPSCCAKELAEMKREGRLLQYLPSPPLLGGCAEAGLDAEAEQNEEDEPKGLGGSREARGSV
Method: X. laevis oocytes were isolated and microinjected as previously described ([6]). Human Kir3.1, mouse Kir3.2, and human Kir3.4 DNA constructs were used for electrophysiology experiments. All cRNA constructs were injected in the amount of 2 ng per oocyte. Injected oocytes were incubated for 2 to 3 days at 18 °C to allow for expression. Whole-cell oocyte currents were then measured using a GeneClamp 500 amplifier (Axon Instruments). Microelectrodes had resistances of 0.5 to 1 megohm using a 3M KCl solution in 1.4% agarose. Oocytes were perfused with a low K^+ (LK) solution ND96 (2 mM KCl, 96 mM NaCl, 1 mM MgCl2, 1.8 mM CaCl2, 5 mM HEPES-Na) to establish a baseline for the recordings. Basal current was measured in a high potassium (HK) solution ND96K (96 mM KCl, 10 mM HEPES-K, 1 mM MgCl2, 1.8 mM CaCl2). To block the current, the oocyte chamber was perfused with 4 mM BaCl2 in ND96K. Only the Barium-sensitive current was used for statistical analysis. To measure the inhibitory activity of the channels, 1 μM BP-G1 in ND96K (HK) was used. Typically, oocytes were held at 0 mV (EK) and the current was monitored constantly using a ramp protocol with a command potential from −80 to +80 mV. Current amplitude was measured at the end of a 1 s sweep. All currents were analyzed when they reached steady state. Error bars in the figures represent SD (N > 4).

[5] = test system: Kir3.1/3.2; set-up: method as in earlier work; conditions: published NTC-801 data ref 27; cited from earlier work
[6] = biological target: Nav1.5 (Homo sapiens, UniProt Q14524); conditions: read-out: Published IC50, Nav1.5 (1Hz); published NTC-801 data ref 27; cited from earlier work
[7] = test system: GP IKACh; set-up: method as in earlier work; conditions: published NTC-801 data ref 27; cited from earlier work
[8] = test system: Kv7.1/KCNE1; conditions: published NTC-801 data ref 27; cited from earlier work
[9] = biological target: Kv4.3 (Homo sapiens, UniProt Q9UK17); conditions: published NTC-801 data ref 27; cited from earlier work
[10] = test system: HCN4; set-up: method as in earlier work; conditions: published NTC-801 data ref 27; cited from earlier work
[11] = biological target: Kv1.5 (Homo sapiens, UniProt P22460); conditions: published NTC-801 data ref 27; cited from earlier work
Kv1.5, sequence (P22460 whole entry): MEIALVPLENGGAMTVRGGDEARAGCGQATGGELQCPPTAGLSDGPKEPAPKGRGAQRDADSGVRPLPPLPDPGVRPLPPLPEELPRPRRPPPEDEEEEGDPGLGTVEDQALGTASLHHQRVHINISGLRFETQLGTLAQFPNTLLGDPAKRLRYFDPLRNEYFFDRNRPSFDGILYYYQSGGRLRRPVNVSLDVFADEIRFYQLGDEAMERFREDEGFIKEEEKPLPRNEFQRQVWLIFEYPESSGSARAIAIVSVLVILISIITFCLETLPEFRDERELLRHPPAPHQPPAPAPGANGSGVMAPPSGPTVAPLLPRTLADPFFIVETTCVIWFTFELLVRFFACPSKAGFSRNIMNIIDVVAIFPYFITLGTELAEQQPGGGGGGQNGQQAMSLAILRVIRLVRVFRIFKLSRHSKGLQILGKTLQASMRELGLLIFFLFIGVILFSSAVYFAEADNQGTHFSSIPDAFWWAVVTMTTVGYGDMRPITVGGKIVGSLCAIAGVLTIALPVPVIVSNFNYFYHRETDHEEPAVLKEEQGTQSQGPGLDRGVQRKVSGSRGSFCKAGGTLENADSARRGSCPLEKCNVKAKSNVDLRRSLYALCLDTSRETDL

[12] = biological target: T4, Kir6.2/SUR2A (Homo sapiens, UniProt O60706+Q14654); conditions: IKATP; published NTC-801 data ref 27; cited from earlier work
T4 construct: Andrew Tinker, UCL; host or cells: HEK293
T4 sequence (Q14654 whole entry): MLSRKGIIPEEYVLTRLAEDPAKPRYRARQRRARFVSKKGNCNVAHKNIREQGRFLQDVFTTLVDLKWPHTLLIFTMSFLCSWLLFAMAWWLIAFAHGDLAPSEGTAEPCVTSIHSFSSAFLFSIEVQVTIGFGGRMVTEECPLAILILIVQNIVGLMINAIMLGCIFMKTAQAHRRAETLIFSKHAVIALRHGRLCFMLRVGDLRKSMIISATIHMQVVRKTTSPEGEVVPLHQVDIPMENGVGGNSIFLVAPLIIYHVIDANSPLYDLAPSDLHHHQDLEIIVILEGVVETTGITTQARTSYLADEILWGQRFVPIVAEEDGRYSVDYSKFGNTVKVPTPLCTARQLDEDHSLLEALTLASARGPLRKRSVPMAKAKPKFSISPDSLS
T4 sequence (O60706 whole entry): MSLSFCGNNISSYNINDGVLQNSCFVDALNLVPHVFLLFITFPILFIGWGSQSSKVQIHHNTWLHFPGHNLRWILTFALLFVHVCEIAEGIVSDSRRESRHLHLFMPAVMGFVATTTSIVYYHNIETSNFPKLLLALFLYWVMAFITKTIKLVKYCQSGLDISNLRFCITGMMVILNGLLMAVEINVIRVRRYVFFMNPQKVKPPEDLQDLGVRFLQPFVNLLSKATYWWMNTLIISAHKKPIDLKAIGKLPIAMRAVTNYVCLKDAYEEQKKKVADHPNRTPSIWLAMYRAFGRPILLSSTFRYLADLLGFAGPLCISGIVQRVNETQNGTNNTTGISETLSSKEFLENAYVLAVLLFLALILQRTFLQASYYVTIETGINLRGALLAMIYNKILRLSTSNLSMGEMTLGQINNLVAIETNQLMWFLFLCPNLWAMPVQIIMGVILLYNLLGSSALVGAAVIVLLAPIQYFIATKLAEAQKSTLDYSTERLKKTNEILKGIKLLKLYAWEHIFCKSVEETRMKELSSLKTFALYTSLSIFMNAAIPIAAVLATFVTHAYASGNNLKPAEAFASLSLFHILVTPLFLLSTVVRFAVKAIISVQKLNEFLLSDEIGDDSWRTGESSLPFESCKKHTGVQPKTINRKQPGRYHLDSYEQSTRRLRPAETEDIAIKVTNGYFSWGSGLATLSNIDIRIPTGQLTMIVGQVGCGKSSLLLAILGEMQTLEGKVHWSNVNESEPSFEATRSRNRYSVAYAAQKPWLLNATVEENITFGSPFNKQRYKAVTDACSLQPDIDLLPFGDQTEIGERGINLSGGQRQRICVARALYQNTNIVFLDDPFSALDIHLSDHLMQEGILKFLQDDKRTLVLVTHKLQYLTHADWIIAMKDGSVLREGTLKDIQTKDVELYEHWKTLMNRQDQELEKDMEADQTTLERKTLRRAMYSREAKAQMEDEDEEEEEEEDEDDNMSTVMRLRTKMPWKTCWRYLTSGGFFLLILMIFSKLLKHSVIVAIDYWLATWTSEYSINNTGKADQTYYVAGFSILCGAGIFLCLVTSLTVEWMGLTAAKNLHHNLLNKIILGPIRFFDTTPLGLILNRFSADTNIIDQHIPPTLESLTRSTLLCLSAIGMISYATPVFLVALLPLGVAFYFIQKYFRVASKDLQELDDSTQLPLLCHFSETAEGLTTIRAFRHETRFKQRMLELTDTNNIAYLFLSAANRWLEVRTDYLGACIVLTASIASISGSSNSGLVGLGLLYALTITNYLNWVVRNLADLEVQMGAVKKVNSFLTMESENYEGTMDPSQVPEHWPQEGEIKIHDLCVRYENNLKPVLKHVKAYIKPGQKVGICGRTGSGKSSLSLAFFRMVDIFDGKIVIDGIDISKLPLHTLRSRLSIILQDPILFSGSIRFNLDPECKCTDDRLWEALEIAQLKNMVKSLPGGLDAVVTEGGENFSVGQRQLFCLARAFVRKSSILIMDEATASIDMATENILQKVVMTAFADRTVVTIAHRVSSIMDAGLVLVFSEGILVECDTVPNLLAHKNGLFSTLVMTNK

[13] = biological target: T5, Kir2.1 (Homo sapiens, UniProt P63252); conditions: published NTC-801 data ref 27; cited from earlier work
T5 construct: host or cells: HEK293
T5 sequence (P63252 whole entry): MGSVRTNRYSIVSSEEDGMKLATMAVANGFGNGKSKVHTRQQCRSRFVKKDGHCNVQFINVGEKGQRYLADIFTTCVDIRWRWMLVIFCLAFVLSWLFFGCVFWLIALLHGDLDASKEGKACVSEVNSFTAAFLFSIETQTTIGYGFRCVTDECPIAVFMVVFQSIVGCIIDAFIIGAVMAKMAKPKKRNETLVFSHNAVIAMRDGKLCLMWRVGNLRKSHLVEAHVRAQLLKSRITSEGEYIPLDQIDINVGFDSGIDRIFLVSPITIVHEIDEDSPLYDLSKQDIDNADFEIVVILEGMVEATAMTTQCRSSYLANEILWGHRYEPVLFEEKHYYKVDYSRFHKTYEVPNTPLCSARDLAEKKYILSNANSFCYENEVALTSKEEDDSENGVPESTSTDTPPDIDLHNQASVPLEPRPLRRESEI

[14] = test system: hERG; conditions: read-out: Published IC50, hERG; published NTC-801 data ref 27; cited from earlier work
[15] = test system: Cav1.2; conditions: read-out: Published IC50, Cav1.2; ICa,L; published NTC-801 data ref 27; cited from earlier work
[16] = test system: Kir3.1/3.4; set-up: method as in earlier work; conditions: oocyte; published NTC-801 data ref 27; cited from earlier work
[17] = biological target: T6, 5-HT2C (Homo sapiens, UniProt P28335); assay: Radioligand binding, [3H]mesulergine; conditions: read-out: Reference: IC50
T6 construct: expressed in transfected cells; host or cells: HEK-293 cells
T6 sequence (P28335 33-458): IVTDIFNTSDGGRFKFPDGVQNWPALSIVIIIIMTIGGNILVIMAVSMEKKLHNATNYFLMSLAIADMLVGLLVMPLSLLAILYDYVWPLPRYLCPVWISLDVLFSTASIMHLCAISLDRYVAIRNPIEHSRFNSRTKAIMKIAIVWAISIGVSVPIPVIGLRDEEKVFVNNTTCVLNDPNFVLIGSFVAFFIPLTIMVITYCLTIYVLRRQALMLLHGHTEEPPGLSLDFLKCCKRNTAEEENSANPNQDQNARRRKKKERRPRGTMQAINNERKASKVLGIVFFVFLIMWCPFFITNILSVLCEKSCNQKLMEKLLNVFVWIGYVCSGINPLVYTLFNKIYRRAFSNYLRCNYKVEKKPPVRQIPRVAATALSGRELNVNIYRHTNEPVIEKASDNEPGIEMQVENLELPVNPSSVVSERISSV

[18] = biological target: Purinergic Channels P2X; assay: Radioligand binding, [3H]a,b-MeATP, rat urinary bladder; conditions: reference compound run for the assay
[19] = biological target: Purinergic Channels P2Y; assay: Radioligand binding, [35S]dATPaS; set-up: species or system rat; conditions: reference compound run for the assay
[20] = biological target: Benzodiazepine BDZ Central; assay: Radioligand binding, [3H]flunitrazepam; set-up: species or system rat; conditions: read-out: Reference: IC50
[21] = biological target: GABA Cl- channel (GABA-gated); assay: Radioligand binding, [35S]TBPS; set-up: species or system rat; conditions: reference compound run for the assay
[22] = biological target: Adrenergic α2; assay: Radioligand binding, [3H]prazosin; set-up: species or system rat; conditions: reference compound run for the assay
[23] = biological target: T7, Chemokines CCR1 (Homo sapiens, UniProt P32246); assay: Radioligand binding, [125I]MIP-1a; conditions: reference compound run for the assay
T7 construct: expressed in transfected cells; host or cells: HEK-293 cells
T7 sequence (P32246 1-355): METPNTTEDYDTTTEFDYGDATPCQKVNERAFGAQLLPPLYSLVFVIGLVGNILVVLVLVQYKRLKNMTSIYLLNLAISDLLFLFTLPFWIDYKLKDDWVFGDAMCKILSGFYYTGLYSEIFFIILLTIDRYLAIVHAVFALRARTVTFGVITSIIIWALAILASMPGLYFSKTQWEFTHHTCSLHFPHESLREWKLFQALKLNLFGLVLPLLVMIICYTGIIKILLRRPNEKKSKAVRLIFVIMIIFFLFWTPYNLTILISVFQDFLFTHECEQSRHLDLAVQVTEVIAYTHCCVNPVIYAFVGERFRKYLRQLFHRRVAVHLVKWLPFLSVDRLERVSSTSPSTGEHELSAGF

[24] = test system: TNF-α; assay: Radioligand binding, [125I]TNF-a, U-937 cells; conditions: reference compound run for the assay
[25] = biological target: SKCa; assay: Radioligand binding, [125I]apamin; set-up: species or system rat; conditions: reference compound run for the assay
[26] = biological target: Bombesin BB; assay: Radioligand binding, [125I][Tyr4]bombesin; set-up: species or system rat; conditions: reference compound run for the assay
[27] = test system: Somatostatin sst; assay: Radioligand binding, [125I]Tyr11-somatostatin-14, AtT-20 cells; conditions: reference compound run for the assay

COc1cc(CC(C)N)c(OC)cc1I (racemic) [(±)DOI]
IC50 [1]: 5 nM

C[N+]1(C)CCC(OC(=O)C(c2ccccc2)c2ccccc2)CC1 [4-DAMP]
IC50 [2]: 0.52 nM

C[N+](C)(C)CCOC(N)=O [Carbachol, carbachol, reference compound]
RR interval after carbachol ([3]; BP-G1 group, baseline 155.2 ± 16.3 ms): 474.2 ± 60.7 ms
RR interval after carbachol ([3]; saline control group, baseline 168.6 ± 10.7 ms): 476.7 ± 77.8 ms

Cc1ccnc2cc3c(cc12)OC(C)(C)C=C3 [GAT1572, 2,2,9-trimethyl-2H-pyrano[2,3-g]quinoline]
inhibitory activity on Kir3.1/4 channel [4]: not active

Cc1cc(CO)nc2cc3c(cc12)OC(C)(C)C=C3 [GAT1573, (2,2,9-trimethyl-2H-pyrano[2,3-g]quinolin-7-yl)methanol]
inhibitory activity on Kir3.1/4 channel [4]: not active

Cc1ccnc2cc3c(cc12)OC(C)(C)[C@H](O)[C@H]3NCCc1ccccc1 [GAT1588, (3R,4S)-2,2,9-trimethyl-4-(phenethylamino)-3,4-dihydro-2H-pyrano[2,3-g]quinolin-3-ol]
inhibitory activity on Kir3.1/4 channel [4]: retained comparable inhibitory activity to BP-G1; also recorded: inhibited the channel with comparable activity to BP-G1

Cc1cc(CO)nc2cc3c(cc12)OC(C)(C)[C@H](O)[C@H]3NCCc1ccccc1 [NTC-801]
IC50 [5]: 34 nM
IC50 [6]: 8300 nM
IC50 [7]: 7 nM
IC50 [8]: > 30000 nM
IC50 [9]: > 11600 nM
IC50 [10]: > 30000 nM
IC50 [11]: > 30000 nM
IC50 [12]: 7800 nM
IC50 [13]: > 30000 nM
IC50 [14]: > 30000 nM
IC50 [15]: > 30000 nM
IC50 [16]: 0.7 nM

COc1cc(OC)c(C(=O)CCCCN2CCC3(CC2)NC(=O)NC3=O)cc1NS(=O)(=O)c1ccc(C(F)(F)F)cc1 [RS 102221]
IC50 [17]: 3.1 nM

Nc1ncnc2c1ncn2[C@@H]1O[C@H](COP(=O)(O)CP(=O)(O)OP(=O)(O)O)[C@@H](O)[C@H]1O [a,b-MeATP]
IC50 [18]: 3.5 nM

Nc1ncnc2c1ncn2[C@H]1C[C@H](O)[C@@H](COP(O)(=S)OP(=O)(O)OP(=O)(O)O)O1 (stereo partly drawn) [dATPaS]
IC50 [19]: 20 nM

CN1C(=O)CN=C(c2ccccc2)c2cc(Cl)ccc21 [diazepam]
IC50 [20]: 8.6 nM

C=C(C)[C@@H]1[C@H]2OC(=O)[C@@H]1[C@]1(O)C[C@H]3O[C@]34C(=O)O[C@H]2[C@]14C [picrotoxinin, reference compound]
IC50 [21]: 150 nM

COc1cc2nc(N3CCN(C(=O)c4ccco4)CC3)nc(N)c2cc1OC [prazosin]
IC50 [22]: 0.182 nM

MIP-1a: assay reference compound
IC50 [23]: 0.04 nM

TNF-a
IC50 [24]: 0.1 nM

apamin (CNCKAPETALCARRCQQH; ends and bridges not checked; cysteine pairing not given here; UniProt P01500 28-45, looked up)
IC50 [25]: 0.0091 nM

bombesin
IC50 [26]: 0.205 nM

somatostatin-14
IC50 [27]: 0.2 nM
